Data published in ChEMBL document CHEMBL3045368, “Design, synthesis, and biological activities of novel 2-cyanoacrylates containing oxazole, oxadiazole, or quinoline moieties” (2009).

These compounds were tested on Brassica napus (assay: Herbicidal activity against Brassica napus (oilseed rape) assessed as inhibition of herb growth at 1.5 kg/ha during preemergence treatment protocol). Conditions: pre-emergence, read-out: GI.
Type: functional

Structure (SMILES)	inhibition of growth at 1500 g/ha [%]
CCOCCOC(=O)/C(C#N)=C(/CC)NCc1ccc2ccccc2n1	0
CCOCCOC(=O)/C(C#N)=C(\NCc1ncc(C(C)C)o1)C(C)C	52.7
CCOCCOC(=O)/C(C#N)=C(\NCc1nc(-c2ccc(F)cc2)no1)SC	10
CCOCCOC(=O)/C(C#N)=C(\NCc1nc(-c2ccc(C(F)(F)F)cc2)no1)SC	0
CCOCCOC(=O)/C(C#N)=C(\NCc1coc(-c2ccccc2)n1)SC	5
CCOCCOC(=O)/C(C#N)=C(\NCc1ccc2ccccc2n1)C(C)C	0
CCOCCOC(=O)/C(C#N)=C(\NCc1coc(-c2ccccc2)n1)C(C)C	0
CCOCCOC(=O)/C(C#N)=C(\NCc1coc(-c2cccc(Cl)c2)n1)SC	0
CCOCCOC(=O)/C(C#N)=C(\NCc1ncc(C(C)C)o1)SC	10

The compounds below were run on Amaranthus retroflexus (assay: Herbicidal activity against Amaranthus retroflexus assessed as inhibition of herb growth at 1.5 kg/ha during preemergence treatment protocol). Conditions: pre-emergence, read-out: GI.
Type: functional

Structure (SMILES)	inhibition of growth at 1500 g/ha [%]
CCOCCOC(=O)/C(C#N)=C(/CC)NCc1ccc2ccccc2n1	20
CCOCCOC(=O)/C(C#N)=C(\NCc1ncc(C(C)C)o1)C(C)C	0
CCOCCOC(=O)/C(C#N)=C(\NCc1nc(-c2ccc(F)cc2)no1)SC	0
CCOCCOC(=O)/C(C#N)=C(\NCc1nc(-c2ccc(C(F)(F)F)cc2)no1)SC	0
CCOCCOC(=O)/C(C#N)=C(\NCc1coc(-c2ccccc2)n1)SC	5
CCOCCOC(=O)/C(C#N)=C(\NCc1ccc2ccccc2n1)C(C)C	0
CCOCCOC(=O)/C(C#N)=C(\NCc1coc(-c2ccccc2)n1)C(C)C	10
CCOCCOC(=O)/C(C#N)=C(\NCc1coc(-c2cccc(Cl)c2)n1)SC	0
CCOCCOC(=O)/C(C#N)=C(\NCc1ncc(C(C)C)o1)SC	5

Each compound was assayed on Digitaria sanguinalis (assay: Herbicidal activity against hairy Digitaria sanguinalis (hairy crabgrass) assessed as inhibition of herb growth at 1.5 kg/ha during postemergence treatment protocol). Conditions: post-emergence, read-out: GI.
Type: functional

Structure (SMILES)	inhibition of growth at 1500 g/ha [%]
CCOCCOC(=O)/C(C#N)=C(/CC)NCc1ccc2ccccc2n1	0
CCOCCOC(=O)/C(C#N)=C(\NCc1ncc(C(C)C)o1)C(C)C	10
CCOCCOC(=O)/C(C#N)=C(\NCc1nc(-c2ccc(F)cc2)no1)SC	10
CCOCCOC(=O)/C(C#N)=C(\NCc1nc(-c2ccc(C(F)(F)F)cc2)no1)SC	37.5
CCOCCOC(=O)/C(C#N)=C(\NCc1coc(-c2ccccc2)n1)SC	0
CCOCCOC(=O)/C(C#N)=C(\NCc1ccc2ccccc2n1)C(C)C	50.6
CCOCCOC(=O)/C(C#N)=C(\NCc1coc(-c2ccccc2)n1)C(C)C	87
CCOCCOC(=O)/C(C#N)=C(\NCc1coc(-c2cccc(Cl)c2)n1)SC	6.5
CCOCCOC(=O)/C(C#N)=C(\NCc1ncc(C(C)C)o1)SC	0

Each compound was assayed on Medicago sativa (assay: Herbicidal activity against Medicago sativa (alfalfa) assessed as inhibition of herb growth at 1.5 kg/ha during postemergence treatment protocol). Conditions: post-emergence, read-out: GI.
Type: functional

Structure (SMILES)	inhibition of growth at 1500 g/ha [%]
CCOCCOC(=O)/C(C#N)=C(/CC)NCc1ccc2ccccc2n1	0
CCOCCOC(=O)/C(C#N)=C(\NCc1ncc(C(C)C)o1)C(C)C	15
CCOCCOC(=O)/C(C#N)=C(\NCc1nc(-c2ccc(F)cc2)no1)SC	0
CCOCCOC(=O)/C(C#N)=C(\NCc1nc(-c2ccc(C(F)(F)F)cc2)no1)SC	0
CCOCCOC(=O)/C(C#N)=C(\NCc1coc(-c2ccccc2)n1)SC	0
CCOCCOC(=O)/C(C#N)=C(\NCc1ccc2ccccc2n1)C(C)C	0
CCOCCOC(=O)/C(C#N)=C(\NCc1coc(-c2ccccc2)n1)C(C)C	0
CCOCCOC(=O)/C(C#N)=C(\NCc1coc(-c2cccc(Cl)c2)n1)SC	0
CCOCCOC(=O)/C(C#N)=C(\NCc1ncc(C(C)C)o1)SC	0

What follows are compounds tested on Brassica napus (assay: Herbicidal activity against Brassica napus (oilseed rape) assessed as inhibition of herb growth at 1.5 kg/ha during postemergence treatment protocol). Conditions: post-emergence, read-out: GI.
Type: functional

Structure (SMILES)	inhibition of growth at 1500 g/ha [%]
CCOCCOC(=O)/C(C#N)=C(/CC)NCc1ccc2ccccc2n1	8.5
CCOCCOC(=O)/C(C#N)=C(\NCc1ncc(C(C)C)o1)C(C)C	100
CCOCCOC(=O)/C(C#N)=C(\NCc1nc(-c2ccc(F)cc2)no1)SC	15
CCOCCOC(=O)/C(C#N)=C(\NCc1nc(-c2ccc(C(F)(F)F)cc2)no1)SC	100
CCOCCOC(=O)/C(C#N)=C(\NCc1coc(-c2ccccc2)n1)SC	34.7
CCOCCOC(=O)/C(C#N)=C(\NCc1ccc2ccccc2n1)C(C)C	72
CCOCCOC(=O)/C(C#N)=C(\NCc1coc(-c2ccccc2)n1)C(C)C	87.3
CCOCCOC(=O)/C(C#N)=C(\NCc1coc(-c2cccc(Cl)c2)n1)SC	25.4
CCOCCOC(=O)/C(C#N)=C(\NCc1ncc(C(C)C)o1)SC	5

Each compound was assayed on Amaranthus retroflexus (assay: Herbicidal activity against Amaranthus retroflexus assessed as inhibition of herb growth at 1.5 kg/ha during postemergence treatment protocol). Conditions: post-emergence, read-out: GI.
Type: functional

Structure (SMILES)	inhibition of growth at 1500 g/ha [%]
CCOCCOC(=O)/C(C#N)=C(/CC)NCc1ccc2ccccc2n1	0
CCOCCOC(=O)/C(C#N)=C(\NCc1ncc(C(C)C)o1)C(C)C	80.5
CCOCCOC(=O)/C(C#N)=C(\NCc1nc(-c2ccc(F)cc2)no1)SC	0
CCOCCOC(=O)/C(C#N)=C(\NCc1nc(-c2ccc(C(F)(F)F)cc2)no1)SC	0
CCOCCOC(=O)/C(C#N)=C(\NCc1coc(-c2ccccc2)n1)SC	0
CCOCCOC(=O)/C(C#N)=C(\NCc1ccc2ccccc2n1)C(C)C	77.8
CCOCCOC(=O)/C(C#N)=C(\NCc1coc(-c2ccccc2)n1)C(C)C	71.4
CCOCCOC(=O)/C(C#N)=C(\NCc1coc(-c2cccc(Cl)c2)n1)SC	0
CCOCCOC(=O)/C(C#N)=C(\NCc1ncc(C(C)C)o1)SC	26.8

These compounds were tested on Cucumis sativus (assay: Plant growth regulatory activity in Cucumis sativus (cucumber) seeds assessed as stimulation of radicle growth level at 10 mg/mL). Conditions: not given.
Type: functional

Structure (SMILES)	Activity [%]
CCOCCOC(=O)/C(C#N)=C(/CC)NCc1ccc2ccccc2n1	95.4
CCOCCOC(=O)/C(C#N)=C(\NCc1ncc(C(C)C)o1)C(C)C	98.2
CCOCCOC(=O)/C(C#N)=C(\NCc1coc(-c2ccccc2)n1)SC	50
CCOCCOC(=O)/C(C#N)=C(\NCc1ccc2ccccc2n1)C(C)C	115
CCOCCOC(=O)/C(C#N)=C(\NCc1coc(-c2ccccc2)n1)C(C)C	60
CCOCCOC(=O)/C(C#N)=C(\NCc1coc(-c2cccc(Cl)c2)n1)SC	80
CCOCCOC(=O)/C(C#N)=C(\NCc1ncc(C(C)C)o1)SC	63.7

These compounds were tested on Digitaria sanguinalis (assay: Herbicidal activity against hairy Digitaria sanguinalis (hairy crabgrass) assessed as inhibition of herb growth at 1.5 kg/ha during preemergence treatment protocol). Conditions: pre-emergence, read-out: GI.
Type: functional

Structure (SMILES)	inhibition of growth at 1500 g/ha [%]
CCOCCOC(=O)/C(C#N)=C(/CC)NCc1ccc2ccccc2n1	0
CCOCCOC(=O)/C(C#N)=C(\NCc1ncc(C(C)C)o1)C(C)C	0
CCOCCOC(=O)/C(C#N)=C(\NCc1nc(-c2ccc(F)cc2)no1)SC	0
CCOCCOC(=O)/C(C#N)=C(\NCc1nc(-c2ccc(C(F)(F)F)cc2)no1)SC	0
CCOCCOC(=O)/C(C#N)=C(\NCc1coc(-c2ccccc2)n1)SC	0
CCOCCOC(=O)/C(C#N)=C(\NCc1ccc2ccccc2n1)C(C)C	0
CCOCCOC(=O)/C(C#N)=C(\NCc1coc(-c2ccccc2)n1)C(C)C	5
CCOCCOC(=O)/C(C#N)=C(\NCc1coc(-c2cccc(Cl)c2)n1)SC	0
CCOCCOC(=O)/C(C#N)=C(\NCc1ncc(C(C)C)o1)SC	0

What follows are compounds tested on Medicago sativa (assay: Herbicidal activity against Medicago sativa (alfalfa) assessed as inhibition of herb growth at 1.5 kg/ha during preemergence treatment protocol). Conditions: pre-emergence, read-out: GI.
Type: functional

Structure (SMILES)	inhibition of growth at 1500 g/ha [%]
CCOCCOC(=O)/C(C#N)=C(/CC)NCc1ccc2ccccc2n1	0
CCOCCOC(=O)/C(C#N)=C(\NCc1ncc(C(C)C)o1)C(C)C	0
CCOCCOC(=O)/C(C#N)=C(\NCc1nc(-c2ccc(F)cc2)no1)SC	0
CCOCCOC(=O)/C(C#N)=C(\NCc1nc(-c2ccc(C(F)(F)F)cc2)no1)SC	0
CCOCCOC(=O)/C(C#N)=C(\NCc1coc(-c2ccccc2)n1)SC	5
CCOCCOC(=O)/C(C#N)=C(\NCc1ccc2ccccc2n1)C(C)C	0
CCOCCOC(=O)/C(C#N)=C(\NCc1coc(-c2ccccc2)n1)C(C)C	0
CCOCCOC(=O)/C(C#N)=C(\NCc1coc(-c2cccc(Cl)c2)n1)SC	10
CCOCCOC(=O)/C(C#N)=C(\NCc1ncc(C(C)C)o1)SC	0
